Measured values as given in patent publication US7566717B2, “Substituted heterocyclic compounds” (Gilead Sciences, Inc., priority 2003, dated 2009).

System: Rat heart mitochondria (palmitoyl CoA oxidation)
Assay: Mitochondrial assay: palmitoyl CoA oxidation
Type: biochemical
Details: at 100 μM of test compound, 1-C14 palmitoyl CoA oxidation, 15 min at 30° C.
Method: Rat heart mitochondria were isolated by the method of Nedergard and Cannon (Methods in Enzymol. 55, 3, 1979).
Palmitoyl CoA oxidation—The Palmityl CoA oxidation was carried out in a total volume of 100 micro liters containing the following agents: 110 mM KCl, 33 mM Tris buffer at pH 8, 2 mM KPi, 2 mM MgCl2, 0.1 mM EDTA, 14.7 microM defatted BSA, 0.5 mM malic acid, 13 mM carnitine, 1 mM ADP, 52 micrograms of mitochondrial protein, and 16 microM 1-C14 palmitoyl CoA (Sp. Activity 60 mCi/mmole; 20 microCi/ml, using 5 microliters per assay). The compounds of this invention were added in a DMSO solution at the following concentrations: 100 micro molar, 30 micro molar, and 3 micro molar. In each assay, a DMSO control was used. After 15 min at 30° C., the enzymatic reaction was centrifuged (20,000 g for 1 min), and 70 microliters of the supernatant was added to an activated reverse phase silicic acid column (approximately 0.5 ml of silicic acid). The column was eluted with 2 ml of water, and 0.5 ml of the eluent was used for scintillation counting to determine the amount of C^14 trapped as C^14 bicarbonate ion.

Structure (SMILES)	Inhibition
Cc1cccc(C)c1NC(=O)CN1CCN(CC(O)CC2CCCCC2)CC1 (stereo not drawn) [N-(2,6-dimethylphenyl)-2-[4-(3-cyclohexyl-2-hydroxypropyl)piperazinyl]acetamide]	8%
Cc1cccc(C)c1NC(=O)CN1CCN(CC(O)CNC(=O)c2ccccc2F)CC1 (stereo not drawn) [N-(2,6-dimethylphenyl)-2-(4-{3-[(2-fluorophenyl)carbonylamino]-2-hydroxypropyl}piperazinyl)acetamide]	24%
Cc1cccc(C)c1NC(=O)CN1CCN(CC(O)CC(=O)Nc2ccccc2F)CC1 (stereo not drawn) [4-(4-{[N-(2,6-dimethylphenyl)carbamoyl]methyl}piperazinyl)-3-hydroxy-N-(2-fluorophenyl)butanamide]	36%
